Experimental data: ChEMBL document CHEMBL3351469, “Structure-activity relationships (SAR) and structure-kinetic relationships (SKR) of bicyclic heteroaromatic acetic acids as potent CRTh2 antagonists III: the role of a hydrogen-bond acceptor in long receptor residence times” (Bioorg Med Chem Lett, 2014); call rule not given here

Experiments:
[1] = biological target: T1, Prostaglandin D2 receptor 2 (Homo sapiens, UniProt Q9Y5Y4); experiment: Antagonist activity at CRTh2 (unknown origin) stably expressed in PGD2-stimulated CHO.K1 cells preincubated for 1 hr by radio-labelled [35S]-GTPgammaS binding assay; assay type: functional, cell-based
T1 sequence (Q9Y5Y4 whole entry): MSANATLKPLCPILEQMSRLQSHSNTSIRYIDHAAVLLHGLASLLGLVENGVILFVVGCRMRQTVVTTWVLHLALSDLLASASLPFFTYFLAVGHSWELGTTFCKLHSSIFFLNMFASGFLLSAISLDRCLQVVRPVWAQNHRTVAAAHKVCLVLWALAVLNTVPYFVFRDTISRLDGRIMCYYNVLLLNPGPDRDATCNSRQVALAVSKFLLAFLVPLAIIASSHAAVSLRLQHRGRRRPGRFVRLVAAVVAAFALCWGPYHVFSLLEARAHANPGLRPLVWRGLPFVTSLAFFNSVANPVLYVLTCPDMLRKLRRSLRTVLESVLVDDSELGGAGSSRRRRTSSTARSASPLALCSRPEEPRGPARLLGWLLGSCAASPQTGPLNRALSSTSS

[2] = biological target: T2, Prostaglandin D2 receptor 2 (Homo sapiens) (UniProt Q9Y5Y4); conditions: CHO.K1
T2 sequence (whole entry): T1 sequence (Q9Y5Y4 whole entry)
Description: Antagonist activity at CRTh2 (unknown origin) stably expressed in PGD2-stimulated CHO.K1 cells assessed as dissociation half-life at 10 times IC50 after 1 hr preincubation by radio-labelled [35S]-GTPgammaS binding assay

[3] = biological target: T2, Prostaglandin D2 receptor 2 (Homo sapiens); experiment: Antagonist activity at CRTh2 (unknown origin) stably expressed in PGD2-stimulated CHO.K1 cells assessed as dissociation half-life at 10 times IC50 after 1 hr preincubation measured at 28 hrs after washout by radio-labelled [35S]-GTPgammaS binding assay; assay type: functional, cell-based

Row | Compound | IC50 ([1]; read-out: IC50) [nM] | T1/2 [2] [h] | IC50 ([1]; cho.k1) | T1/2 [3] [h]
1 | Cc1ccn2c(CC(=O)O)cc(-c3ccc(C(F)(F)F)cc3Cc3c(C)noc3C3CC3)c2n1 | 5 | 12 |  | 
2 | Cc1noc(C)c1Cc1cc(C(F)(F)F)ccc1-c1cn(CC(=O)O)c2ccc(F)cc12 | 20 | 10 |  | 
3 | COc1ccc(CC(=O)O)cc1-c1ccc(C(F)(F)F)cc1Cn1ccccc1=O |  |  | Not Active | 
4 | Cc1noc(C2CC2)c1Cc1cc(F)ccc1-c1cn(CC(=O)O)c2ccc(C(F)(F)F)cc12 | 37 | 27 |  | 
5 | Cc1ccc(-n2cc(CC(=O)O)c3ccc(Cc4ccccc4)nc32)c(Cn2c(C)nnc2C)c1 | 7 | 20 |  | 
6 | Cc1cnn(C)c1Cc1cc(C(F)(F)F)ccc1-c1cn(CC(=O)O)c2ccc(F)cc12 | 64 | 2.5 |  | 
7 | Cc1noc(C2CC2)c1Cc1cc(Cl)ccc1-n1cc(CC(=O)O)c2ccc(Cc3ccccc3)nc21 | 7 |  |  | 42
8 | Cc1ccc(-n2cc(CC(=O)O)c3ccc(C)nc32)c(Cn2ccnc2-c2ccccc2)c1 | 30 | 1.2 |  | 
9 | Cc1noc(C2CC2)c1Cc1cc(C(F)(F)F)ccc1-c1cn(CC(=O)O)c2ccc(C(F)(F)F)nc12 | 23 | 25 |  | 
10 | Cc1nnc(C2CC2)n1Cc1cc(C(F)(F)F)ccc1-c1cn(CC(=O)O)c2ccc(F)cc12 | 6 | 20 |  | 
11 | Cc1noc(C2CC2)c1Cc1cc(C(F)(F)F)ccc1-c1cn(CC(=O)O)c2ccc(F)cc12 | 37 | 8 |  | 
12 | Cc1ccc2c(CC(=O)O)cn(-c3ccc(Cl)cc3Cn3c(C)nnc3CCc3ccccc3)c2n1 | 9 | 26 |  | 
13 | Cc1ccc2c(n1)c(-c1ccc(C(F)(F)F)cc1Cc1c(C)noc1C)cn2CC(=O)O | 5 | 5 |  | 
14 | Cc1ccc2c(CC(=O)O)cn(-c3ccccc3Cn3ccnn3)c2n1 | 1800 |  |  | 
15 | Cc1noc(C)c1-c1cccc(-c2c(C)n(CC(=O)O)c3ccc(F)cc23)c1 | 6 | 18 |  | 
16 | Cc1c(-c2cccc3c2CCN(S(C)(=O)=O)C3)c2cc(F)ccc2n1CC(=O)O | 4 | 1.7 |  | 
17 | Cc1ccc2c(CC(=O)O)cc(-c3ccc(C(F)(F)F)cc3Cc3c(C)noc3C3CC3)n2n1 | 3 | 14 |  | 
18 | CCCc1nc2ccccc2n1Cc1ccccc1-n1cc(CC(=O)O)c2ccc(C)nc21 | 51 | 0.6 |  | 
19 | Cc1ccc2c(CC(=O)O)cn(-c3ccc(Cl)cc3Cc3c(C)noc3Cc3ccccc3)c2n1 | 3 |  |  | 45
20 | O=C(O)Cn1cc(-c2ccc(C(F)(F)F)cc2Cc2ocnc2C2CC2)c2cc(F)ccc21 | 2600 |  |  | 
21 | Cc1ccc2c(CC(=O)O)cn(-c3ccc(Cl)cc3Cn3c(C)nnc3Cc3ccccc3)c2n1 | 11 | 26 |  | 
22 | Cc1ccc2c(CC(=O)O)cn(-c3ccc(Cl)cc3Cn3c(C)nnc3C3CC3)c2n1 | 56 | 20 |  | 
23 | Cc1ccc2c(CC(=O)O)cn(-c3ccc(Cl)cc3Cc3c(C4CC4)noc3C3CC3)c2n1 | 6 | 22 |  | 
24 | Cc1ccc(-n2cc(CC(=O)O)c3ccc(C)nc32)c(Cc2ccnn2Cc2ccccc2)c1 | 1000 |  |  | 
25 | COc1ccc(CC(=O)O)cc1-c1ccc(C(F)(F)F)cc1Cn1c(C)nnc1C1CC1 | 27 | 1.5 |  | 

Second part, the compound after the results:

Row | IC50 ([1]; read-out: IC50) [nM] | T1/2 [2] [h] | IC50 ([1]; cho.k1) | T1/2 [3] [h] | Compound
26 | 9 | 16 |  |  | Cc1nnc(C2CC2)n1Cc1cc(C(F)(F)F)ccc1-n1cc(CC(=O)O)c2ccc(F)cc21
27 |  |  | Not Active |  | Cc1ccc2c(CC(=O)O)cn(-c3ccc(C(F)(F)F)cc3CSC(C)(C)C)c2n1
28 | 1400 |  |  |  | Cc1ccc2c(CC(=O)O)cn(-c3ccc(Cl)cc3Cc3cncnc3)c2n1
29 | 4 | 10 |  |  | Cc1ccc(-n2cc(CC(=O)O)c3ccc(C)nc32)c(Cc2c(C)cnn2CC2CC2)c1
30 | 10 | 6 |  |  | CCN(Cc1cc(C(F)(F)F)ccc1-n1cc(CC(=O)O)c2ccc(C)nc21)C(C)=O
31 | 10 | 1.2 |  |  | Cc1ccc2c(CC(=O)O)cn(-c3ccc(F)cc3Cc3c(C)cnn3C)c2n1
32 | 2 | 3 |  |  | Cc1ccc2c(CC(=O)O)cn(-c3ccc(F)cc3Cc3c(C)noc3C)c2n1
33 |  |  | Not Active |  | Cc1cn(Cc2ccccc2-n2cc(CC(=O)O)c3ccc(C)nc32)c(C)n1
34 | 14 | 2 |  |  | CCN(Cc1cc(C(F)(F)F)ccc1-c1cc(CC(=O)O)ccc1OC)C(=O)C1CC1
35 |  |  | Not Active |  | Cc1ccc2c(CC(=O)O)cn(-c3ccccc3Cn3nc(C)nc3C)c2n1
36 |  |  | Not Active |  | Cc1ccc2c(CC(=O)O)cn(-c3ccc(Cl)cc3Cc3cc(C)nn3C)c2n1
37 | 8 | 11 |  |  | CCN(Cc1cc(C(=O)NCCc2ccccc2)ccc1-n1cc(CC(=O)O)c2ccc(C)nc21)C(=O)C1CC1
38 | 16 | 9 |  |  | Cc1ccc(-n2cc(CC(=O)O)c3ccc(C)nc32)c(Cn2c(C)nnc2C)c1
39 | 170 |  |  |  | Cc1ccc2c(CC(=O)O)cn(-c3ccc(Cl)cc3Cc3cncnc3C(C)C)c2n1
40 | 2 | 6 |  |  | Cc1ccc2c(CC(=O)O)cn(-c3ccc(F)cc3Cc3c(C)noc3C3CC3)c2n1
41 | 580 |  |  |  | Cc1ccc2c(CC(=O)O)cn(-c3ccccc3Cn3ccnc3)c2n1
42 | 150 |  |  |  | Cc1ccc(-n2cc(CC(=O)O)c3ccc(C)nc32)c(Cn2nncc2C)c1
43 | 3 | 23 |  |  | Cc1ccc2c(CC(=O)O)cn(-c3ccc(C(F)(F)F)cc3Cc3c(C4CC4)noc3C3CC3)c2n1
44 | 250 |  |  |  | Cc1ccc(-n2cc(CC(=O)O)c3ccc(C)nc32)c(Cn2ccnc2C)c1
45 | 1 | 13 |  |  | Cc1ccc2c(CC(=O)O)cn(-c3ccc(C(F)(F)F)cc3Cc3c(C)noc3C3CC3)c2n1
